# In US20160340647A1, “COMPOSITIONS AND METHODS FOR INDUCING DIFFERENTIATION OF STEM CELLS” (BIODEMAK LLC, priority 2014, published 2016):
# What was measured:
# [1] = test system: GSCs obtained from the U87 cell line; assay: Cell differentiation of GSCs (phase contrast morphology, western blot); type: cell-based; conditions: for cell differentiation of GSCs (FIG. 6): treatment 2, two days
# Description: (§1) Sulindac was obtained from Sigma.
# (§2) Imaging and Immunocytochemistry: • Phase contrast pictures were obtained using an AmScope camera attached to a Nikon TMS microscope. Indirect immunocytochemistry (ICC) was performed as described previously. Briefly, cells were mechanically disaggregated and plated on poly-L-Lysine (PLL). For ICC the following markers were used: Ki67 for proliferative cells; nestin for NSC; beta-tubulin III for neurons; GFAP for astrocytes and 01 for oligodendrocytes. Epifluorescence microscopes (Leica and Nikon) were used for pictures, counting and visualization of the immunocytochemistry. The total number of neurons was quantified by counting a minimum of 15 fields per treatment in triplicates or quadruplicates and normalized vs. non-treated cultures.
# [2] = test system: GSCs obtained from the U87 cell line; assay: Cell viability of GSCs after oxidizing agents (CellTiter 96 Aqueous One); conditions: for GSC killing in combination with oxidizing agents (FIG. 7): treatment 2, 250 uM epimer, 200 uM TBHP
# [3] = test system: NSCs; assay: Neuronal differentiation of NSCs (beta-tubulin III immunocytochemistry, number of neurons vs control); type: cell-based, mice; conditions: treatment 1: floating NSCs 24 hours with 500 microMolar sulindac, plated on PLL another 24 hours
# Description: (§3) NSCs were obtained from the hippocampi of PO BL6 mice and cultured in DMEM/F12 medium (Gibco) containing B27 (Gibco), epidermal growth factor (EGF, 20 ng/ml. Invitrogen) and basic fibroblast growth factor (bFGF 10 ng/ml. Peprotech). To induce cell differentiation, NSC where plated on poli-L-lysine (Sigma) were NSC spontaneously differentiate into neurons, astrocytes and oligodendrocytes as previously described (Lopez-Toledano M A & Shelanski M L (2004) J. Neurosci. 24(23):5439-5444).
# as §1, §2
# [4] = test system: RTP801 levels in U87 cells; assay: RTP801 levels in U87 cells; conditions: U87 cells treated 72 hours at the same day of plating
# [5] = test system: NSCs; assay: Cell viability of NSCs after TBHP (CellTiter 96 Aqueous One); type: cell-based, mice; conditions: TBHP two hours
# Description: as §3, §1
# (§4) Background absorbance was subtracted from each sample.
# [6] = test system: RTP801 levels in GSCs; assay: RTP801 levels in GSCs
# [7] = test system: astrocytes; assay: Cell viability of astrocytes after TBHP (CellTiter 96 Aqueous One); type: cell-based, mice; conditions: astrocytes plated seven days, 48 hours 500 μM sulindac
# Description: To obtain a pure culture of astrocytes, NSCs were differentiated in DMEM+10% FBS (both of Gibco) for seven days, trypsinized and re-plated in a new flask with the same medium. Under these circumstances, close to 100% of the cells become astrocytes (GFAP^+ cells).
# as §1, §4
# [8] = 3 mM As2O3, 30 mM DCA or 400 nM DOX
structure (smiles),measurement,setting,value
CC(C)Cc1ccc(C(C)C(=O)O)cc1 (centres unmarked) [ibuprofen],cell differentiation of GSCs (FIG. 6),[1]; 400 uM,no significant differentiation
CC1=C(CC(=O)O)c2cc(F)ccc2/C1=C\c1ccc([S@@+](C)[O-])cc1 [sulindac R epimer],GSC killing in combination with oxidizing agents (FIG. 7),[2]; [8],enhanced killing
CC1=C(CC(=O)O)c2cc(F)ccc2/C1=C\c1ccc([S@+](C)[O-])cc1 [sulindac S-epimer],GSC killing in combination with oxidizing agents (FIG. 7),[2]; [8],enhanced killing
CC1=C(CC(=O)O)c2cc(F)ccc2/C1=C\c1ccc(S(C)(=O)=O)cc1 [sulindac sulfone],cell differentiation of GSCs (FIG. 6),[1]; 25 uM,lower activity
CC1=C(CC(=O)O)c2cc(F)ccc2/C1=C\c1ccc([S+](C)[O-])cc1 (centres unmarked) [sulindac],"neuronal differentiation of GSC by Western blot (nestin, DCX, actin)",[1]; 500 microMolar sulindac,higher neuronal differentiation
same,cell differentiation of GSCs (morphology) vs vehicle,"[1]; treatment 1: floating GSCs 24 hours with 500 microMolar sulindac, plated on PLL another 24 hours",clear differentiation effect
same,cell differentiation of GSCs (FIG. 6),[1]; 500 uM,lower activity
same,number of neurons (beta-tubulin III+) vs vehicle,[3],significant increase in the number of neurons
same,change of RTP801 levels,[4],reduction in RTP801 levels
same,GSC sensitivity to different oxidative agents (FIG. 7),"[2]; 48 hours, 500 uM sulindac, TBHP, 3 mM As2O3, 30 mM DCA or 400 nM DOX",increase GSC sensitivity
same,effect on TBHP-induced cell death of floating undifferentiated GSCs,"[2]; treatment 1, 500 μM sulindac 24 hours, TBHP two hours",no effect
same,effect on TBHP-induced cell death of plated GSCs,"[2]; treatment 2, 500 μM sulindac, TBHP two hours",increased TBHP-induced cell death
same,effect on TBHP-induced death of NSCs,"[5]; treatment 1, floating NSCs, 500 μM sulindac",protected floating NSCs from TBHP-induced death
same,effect on TBHP-induced cell death of NSCs,"[5]; treatment 2, plated NSCs, 500 μM sulindac 48 hours",complete protection against TBHP-induced cell death
same,change of RTP801 levels,"[6]; GSCs at 0+72 (both floating and plated), 0+3 and 0+6",increase
same,change of RTP801 levels,"[6]; GSCs, sulindac added at the 3rd dpp for 3 days",decrease in RTP801
same,effect on TBHP-induced cell death of astrocytes,[7],very similar protection
